Results as given in patent publication EP0788796A1, “URICOSURIC AGENT” (priority 1995, dated 1997).
Like-named read-outs stand apart in the source and are kept apart here.

Tests used:
[1] = Uric acid excreting and diuretic actions in rats; type: in vivo, Wistar rats; conditions: for response vs control in vivo at 300 mg/kg / response vs control in vivo at 1000 mg/kg: Rattus norvegicus, female Wistar rats, urine collected up to 5 h, relative value with control = 100; for response vs control in vivo at 300 mg/kg: 300 mg/kg oral; for response vs control in vivo at 1000 mg/kg: 1000 mg/kg oral; for urine volume: result in words, summary of Table 1
Protocol: Three female Wistar rats (4-week old) in each group were administered orally with 300 or 1000 mg/kg of a test compound in a volume of 10 ml/kg as suspended in an aqueous solution of 0.5% carboxymethylcellulose sodium or 5% gum arabic; immediately thereafter, the animals were loaded orally with 25 ml/kg of physiological saline and the urine was collected up to 5 h after the administration of the test compound. The collected urine was immediately measured quantitatively and the urinary concentration of uric acid was measured by a urikase method in accordance with the procedure of Kabasakalian et al. [Kabasakalian, P. et al.: Clin Chem., 19, 522-524 (1973)] and the urinary excretion of uric acid was calculated. […]

Acute toxicity test = type: in vivo; conditions: oral 100 - 1000 mg/kg, female Wistar rats, observed over 24 h
Protocol: Three female Wistar rats (4-week old) in each group were administered orally with 100 - 1000 mg/kg of a test compound in a volume of 10 ml/kg as suspended in an aqueous solution of 0.5% carboxymethylcellulose sodium or 5% gum arabic and were subsequently observed over 24 h. Compounds 1 - 6 were as identified above.

[2] = Uric acid excreting and diuretic actions in rats; type: in vivo; conditions: Rattus norvegicus; 30 mg/kg oral, female Wistar rats, urine collected up to 5 h, relative value with control = 100; read-out: Urine Volume (%)
[3] = read-out: Urinary excretion of uric acid (%)

| SMILES | response vs control in vivo at 300 mg/kg [1, 3] | response vs control in vivo at 300 mg/kg ([1]; read-out: Urine Volume (%)) | response vs control in vivo at 1000 mg/kg [1, 3] | response vs control in vivo at 1000 mg/kg ([1]; read-out: Urine Volume (%)) | Acute toxicity (Minimal dose causing death: mg/kg) (Acute toxicity test) | urine volume [1] | response vs control in vivo at 30 mg/kg [2] |
| --- | --- | --- | --- | --- | --- | --- | --- |
| O=C1CN(S(=O)(=O)C2CCCCC2)C(=O)N1 [Compound 1, 1-(cyclohexylsulfonyl)hydantoin] | 116% | 96% | 155% | 124% | >1000 (no death case at 1000) mg/kg |  |  |
| O=C1CN(S(=O)(=O)C2CCCCCC2)C(=O)N1 [Compound 2, 1-(cycloheptylsulfonyl)hydantoin] | 152% | 159% | 256% | 170% | >1000 (no death case at 1000) mg/kg |  |  |
| O=C1CN(S(=O)(=O)C2CCCCCCC2)C(=O)N1 [Compound 3, 1-(cyclooctylsulfonyl)hydantoin] | 103% | 109% | 245% | 95% | >1000 (no death case at 1000) mg/kg |  |  |
| Cc1cc(S(=O)(=O)N2CC(=O)NC2=O)c(C)s1 [Compound 4, 1-(2,5-dimethylthien-3-ylsulfonyl)hydantoin] | 104% | 111% | 145% | 207% | >1000 (no death case at 1000) mg/kg |  |  |
| O=C1CN(S(=O)(=O)C2Cc3ccccc3C2)C(=O)N1 [Compound 5, 1-(indan-2-ylsulfonyl)hydantoin] | 102% | 135% | 144% | 144% | >1000 (no death case at 1000) mg/kg |  |  |
| O=C1CN(S(=O)(=O)c2cc(Cl)ccc2Cl)C(=O)N1 [Compound 6, 1-(2,5-dichlorophenylsulfonyl)hydantoin] | 96% | 151% | 151% | 223% | >1000 (no death case at 1000) mg/kg |  |  |
| NS(=O)(=O)c1cc(C(=O)O)c(NCc2ccco2)cc1Cl [Furosemide, furosemide, reference compound] |  |  |  |  |  | an increase in the urine volume was observed | 215% |
| CCCN(CCC)S(=O)(=O)c1ccc(C(=O)O)cc1 [Probenecid, probenecid, reference compound] | 78% | 60% | 167% | 20% |  | significantly decreased the urine volume |  |
